Values joined by “and” are separate entries in the source; they are usually repeats but may differ in a detail not shown here. Equal entries are not always repeated. One block for each compound: values may come before it.
Tests used:
[1] = biological target: T1, pancreatic cholesterol esterase (Sus scrofa, UniProt A0A286ZKB1); conditions: read-out: Cholesterol esterase IC50; p-NPB substrate
T1 sequence (A0A286ZKB1 95-682): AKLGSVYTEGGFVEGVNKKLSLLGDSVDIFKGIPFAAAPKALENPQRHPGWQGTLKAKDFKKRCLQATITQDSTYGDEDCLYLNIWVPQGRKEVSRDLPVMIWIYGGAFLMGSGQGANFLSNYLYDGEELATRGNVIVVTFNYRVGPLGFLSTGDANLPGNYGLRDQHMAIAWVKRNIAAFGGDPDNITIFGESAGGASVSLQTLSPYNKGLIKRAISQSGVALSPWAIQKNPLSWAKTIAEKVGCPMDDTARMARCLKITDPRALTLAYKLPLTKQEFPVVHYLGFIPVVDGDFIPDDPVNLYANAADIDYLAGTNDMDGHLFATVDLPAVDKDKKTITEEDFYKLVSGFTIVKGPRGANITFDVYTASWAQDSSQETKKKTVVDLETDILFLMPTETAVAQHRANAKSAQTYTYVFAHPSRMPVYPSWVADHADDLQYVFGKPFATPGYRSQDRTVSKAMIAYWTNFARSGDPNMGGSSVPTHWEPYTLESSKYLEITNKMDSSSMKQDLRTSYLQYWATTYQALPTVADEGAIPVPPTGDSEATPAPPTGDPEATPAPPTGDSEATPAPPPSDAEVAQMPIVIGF
Procedure: Briefly, 50 μl of the extracts at different concentrations (3.12, 6.25, 12.5, 25, 50, 100, and 200 μg/ml) was added to 50 μl of 5.16 mM taurocholic acid and 50 μl of an aqueous solution of cholesterol esterase and incubated for 10 mins at 25°C. Then, 50 μl of p-nitrophenyl butyrate substrate (0.2 mM) was added to the mixture and incubated for 5 mins at 25°C. Cholesterol esterase inhibitory activity was determined by measuring the hydrolysis of p-NPB to p-nitrophenol at 405 nm using an ELISA microplate reader (BK-EL10 C).
Anticholesterol esterase activity is given as IC50 values (the concentrations that inhibited 50% of the hydrolysis of pNPB to p-nitrophenol).

[2] = biological target: T2, porcine pancreatic lipase (Sus scrofa, UniProt P00591); assay: Pancreatic lipase inhibition; type: biochemical; conditions: read-out: inhibition percentage of lipase
T2 construct: purchased Sigma-Alrich Chemical Co
T2 sequence (P00591 1-450): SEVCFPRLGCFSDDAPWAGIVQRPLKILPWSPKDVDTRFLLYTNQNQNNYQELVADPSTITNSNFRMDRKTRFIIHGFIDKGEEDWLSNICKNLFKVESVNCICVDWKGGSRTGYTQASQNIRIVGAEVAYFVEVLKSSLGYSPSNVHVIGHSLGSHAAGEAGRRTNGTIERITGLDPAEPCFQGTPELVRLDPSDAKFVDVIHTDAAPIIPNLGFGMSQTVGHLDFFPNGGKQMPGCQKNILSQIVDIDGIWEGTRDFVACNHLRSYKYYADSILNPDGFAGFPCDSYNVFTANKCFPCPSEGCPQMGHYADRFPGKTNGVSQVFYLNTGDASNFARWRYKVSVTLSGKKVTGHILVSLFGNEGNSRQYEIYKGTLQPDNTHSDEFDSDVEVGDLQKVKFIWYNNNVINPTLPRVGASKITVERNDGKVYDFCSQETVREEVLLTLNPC
Procedure: The method described by Kim et al. was used in this assay. […] The mixture was then incubated at 37°C for 37 mins. The reaction was started by the addition of 10 μl of p-nitrophenyl butyrate substrate (10 mM p-NPB) in dimethylformamide.

[3] = ABTS radical scavenging; conditions: 15 mins, 734 nm
Procedure: ABTS scavenging activity was evaluated by the discoloration of the cationic radical ABTS^∗^+, as per the technique described by Arnao et al. with some modifications. Briefly, the ABTS reagent was obtained by mixing an ethanolic solution of ABTS (7.4 mM) and an aqueous solution of potassium persulfate (2.6 mM). After mixing, the solution was incubated in the dark for 24 hours. The ABTS solution obtained was diluted until an absorbance of 1.5 was obtained at 734 nm. Two hundred microliters of each extract or catechin at different concentrations (15.62, 31.25, 62.5, and 250 μg/ml) was added to 1800 μl of the ABTS solution prepared above. The mixture was incubated in the dark for 15 mins, and the absorbance was read with a spectrophotometer at 734 nm against the blank. Catechin was used as the standard. […] The IC50 was calculated as in DPPH.

[4] = DPPH free radical scavenging; conditions: 30 mins, 517 nm
Procedure: The DPPH scavenging assay was conducted by the method of Sanchez-Moreno et al. with some modifications. DPPH (0.1 mM) stock solution was diluted in methanol, and the absorbance was adjusted to 1.5 at 517 nm wavelength. […] extracts (500 μl) at different concentrations (15.62, 31.25, 62.5, and 250 μg/ml) were mixed with 2000 μl of DPPH solution and read with the aid of a spectrophotometer at 517 nm after 30 mins of incubation in the dark.

SMILES: CCCCCCCCCCC[C@@H](C[C@@H]1OC(=O)[C@H]1CCCCCC)OC(=O)[C@H](CC(C)C)NC=O [orlistat]
IC50 [1]: 110 µM | inhibition at 200 µg/mL [2]: 97.83 ± 0.34%

ABTS IC50 [3]: 33.48 ± 2.02 µg/mL
SMILES: O.Oc1cc(O)c2c(c1)O[C@H](c1ccc(O)c(O)c1)[C@@H](O)C2 [catechin]

SMILES: O=C1O[C@H]([C@@H](O)CO)C(O)=C1O [ascorbic acid]
DPPH IC50 [4]: 71.78 ± 6.37 µg/mL and 71.98 ± 1.21 µg/mL

— paper PMC9106491, “In Vitro Antioxidant, Anti-Inflammatory, and Digestive Enzymes Inhibition Activities of Hydro-Ethanolic Leaf and Bark Extracts of Psychotria densinervia (K. Krause) Verdc” (Advances in Pharmacological and Pharmaceutical Sciences, 2022)
